Measured values published in patent US6627651B1, “Cyclic compounds and uses thereof” (Takeda Chemical Industries, Ltd., priority 1999, dated 2003).

Structure (SMILES) | melting point
Cc1ccc(-c2ccc3c(c2)CN(C(=O)Nc2ccc(C[N+]4(C)CCCCC4)cc2)CC3)cc1.[Cl-] | 179 to 180 °C (dec.)
Cc1ccc(-c2ccc3c(c2)C=C(C(=O)Nc2ccc(C(=N)N)cc2)CCO3)cc1.Cl | 294 to 296 °C
CCNC(=N)c1ccc(NC(=O)C2=Cc3cc(-c4ccc(C)cc4)ccc3OCC2)cc1.Cl | > 300 °C
CN(Cc1ccc(NC(=O)C2CCS(=O)(=O)c3ccc(OCc4ccc(F)cc4)cc3C2)cc1)C1CCOCC1 (centres unmarked) [Compound 3, 7-(4-fluorobenzyloxy)-N-[4-[N-methyl-N-(tetrahydropyran-4-yl)aminomethyl]phenyl]-1,1-dioxo-3,4-dihydro-1-benzothiepine-4-carboxamide] | 232 to 234 °C
CN(Cc1ccc(NC(=O)C2=Cc3cc(OCc4cccnc4)ccc3S(=O)(=O)CC2)cc1)C1CCOCC1 [Compound 4, N-[4-[N-methyl-N-(tetrahydropyran-4-yl)aminomethyl]phenyl]-7-(3-pyridylmethoxy)-1,1-dioxo-2,3-dihydro-1-benzothiepine-4-carboxamide] | 225 to 229 °C
Cc1ccc(C2=Cc3cc(C(=O)Nc4ccc(CN(C)C5CCOCC5)cc4)ccc3OC2)cc1 [Compound 22, 3-(4-methylphenyl)-N-[4-[N-methyl-N-(tetrahydropyran-4-yl)aminomethyl]phenyl]-2H-1-benzopyran-6-carboxamide] | 230 to 235 °C
Cc1ccc(-c2ccc3cc(C(=O)Nc4ccc(CN(C)C5CCOCC5)cc4)[nH]c3c2)cc1 [Compound 23, 6-(4-methylphenyl)-N-[4-[N-methyl-N-(tetrahydropyran-4-yl)aminomethyl]phenyl]-1H-indole-2-carboxamide] | 246 to 250 °C
Cc1ccc(-c2ccc3cc(C(=O)Nc4ccc(CN(C)C5CCOCC5)cc4)n(C)c3c2)cc1 [Compound 24, 1-methyl-6-(4-methylphenyl)-N-[4-[N-methyl-N-(tetrahydropyran-4-yl)aminomethyl]phenyl]-1H-indole-2-carboxamide] | 225 to 226 °C
Cc1ccc(C2=Cc3cc(C(=O)Nc4ccc(C[N+](C)(C)C5CCOCC5)cc4)ccc3OC2)cc1.[I-] [Compound 28, N,N-dimethyl-N-[4-[[3-(4-methylphenyl)-2H-1-benzopyran-6-carbonyl]amino]benzyl]-4-tetrahydropyranylammonium iodide] | 215 to 218 °C (dec.)
Cc1ccc(-c2ccc3c(c2)C=C(N(C)c2ccc(CN(C)C4CCOCC4)cc2)CCO3)cc1 [Compound 34, N-[4-[(N-methyl-N-(tetrahydropyran-4-yl)aminomethyl)]phenyl]-N-[7-(4-methylphenyl)-2,3-dihydro-1-benzooxepin-4-yl]methylamine] | 158 to 160 °C
Cc1ccc(-c2ccc3c(c2)C=C(C(=O)NC2CCNCC2)CCO3)cc1 [Compound 54, N-(4-piperidinyl)-7-(4-methylphenyl)-2,3-dihydro-1-benzooxepine-4-carboxamide] | 183 to 185 °C
Cc1ccc(-c2ccc3c(c2)C=C(C(=O)NC2CCN(CC4CCCCC4)CC2)CCO3)cc1 [Compound 55, N-(1-cyclohexylmethylpiperidin-4-yl)-7-(4-methylphenyl)-2,3-dihydro-1-benzooxepine-4-carboxamide] | 180 to 181 °C
Cc1ccc(-c2ccc3c(c2)C=C(C(=O)NC2CCN(CC4=CCCCCCC4)CC2)CCO3)cc1 [Compound 57, N-(1-(cycloocten-1-yl)methylpiperidin-4-yl)-7-(4-methylphenyl)-2,3-dihydro-1-benzooxepine-4-carboxamide] | 148 to 151 °C
Cc1ccc(-c2ccc3c(c2)C=C(C(=O)NC2CCN(Cc4ccccc4)CC2)CCO3)cc1 [Compound 58, N-(1-benzylpiperidin-4-yl)-7-(4-methylphenyl)-2,3-dihydro-1-benzooxepine-4-carboxamide] | 161 to 162 °C (dec.)
Cc1ccc(-c2ccc3c(c2)C=C(C(=O)NC2CCN(CC4=CCCCCCCC4)CC2)CCO3)cc1 [Compound 59, N-(1-(cyclononen-1-yl)methylpiperidin-4-yl)-7-(4-methylphenyl)-2,3-dihydro-1-benzooxepine-4-carboxamide] | 128 to 130 °C
Cc1ccc(-c2ccc3c(c2)C=C(C(=O)NC2CCN(CCC4CCCCC4)CC2)CCO3)cc1 [Compound 60, N-(1-(2-cyclohexylethyl)piperidin-4-yl)-7-(4-methylphenyl)-2,3-dihydro-1-benzooxepine-4-carboxamide] | 193 to 196 °C
Cc1ccc(-c2ccc3c(c2)C=C(C(=O)NC2CCN(C)CC2)CCO3)cc1 [Compound 61, N-(1-methylpiperidin-4-yl)-7-(4-methylphenyl)-2,3-dihydro-1-benzooxepine-4-carboxamide] | 180 to 182 °C
Cc1ccc(-c2ccc3c(c2)C=C(C(=O)N[C@H]2CC[C@H](CN(C)C4CCOCC4)CC2)CCO3)cc1 [Compound 63, trans-7-(4-methylphenyl)-N-[4-[N-methyl-N-(tetrahydropyran-4-yl)aminomethyl]cyclohexyl]-2,3-dihydro-1-benzooxepine-4-carboxamide] | 144 to 146 °C
Cc1ccc(-c2ccc3c(c2)C=C(C(=O)N[C@H]2CC[C@H](CN(C)C4CCOCC4)CC2)CCC3)cc1 [Compound 64, trans-2-(4-methylphenyl)-N-[4-[N-methyl-N-(tetrahydropyran-4-yl)aminomethyl]cyclohexyl]-6,7-dihydro-5H-benzocycloheptene-8-carboxamide] | 163 to 165 °C
Cc1ccc(-c2ccc3c(c2)C=C(C(=O)N[C@H]2CC[C@H](CN(C)C4CCN(C(=O)OC(C)(C)C)CC4)CC2)CCO3)cc1 [Compound 65, trans-N-[4-[N-(1-tert-butoxycarbonylpiperidin-4-yl)-N-methylaminomethyl]cyclohexyl]-7-(4-methylphenyl)-2,3-dihydro-1-benzooxepine-4-carboxamide] | 146 to 150 °C
Cc1ccc(-c2ccc3c(c2)C=C(C(=O)N[C@H]2CC[C@H](CN(C)C4CCOCC4)CC2)CO3)cc1 [Compound 67, trans-6-(4-methylphenyl)-N-[4-[N-methyl-N-(tetrahydropyran-4-yl)aminomethyl]cyclohexyl]-2H-1-benzopyran-3-carboxamide] | 141 to 143 °C

Now from value to molecule:

melting point | Structure (SMILES)
205 to 207 °C | Cc1ccc(C2=Cc3cc(C(=O)N[C@H]4CC[C@H](CN(C)C5CCOCC5)CC4)ccc3OC2)cc1 [Compound 68, trans-3-(4-methylphenyl)-N-[4-[N-methyl-N-(tetrahydropyran-4-yl)aminomethyl]cyclohexyl]-2H-1-benzopyran-6-carboxamide]
163 to 165 °C | Cc1ccc(-c2ccc3nc(C)c(C(=O)N[C@H]4CC[C@H](CN(C)C5CCOCC5)CC4)cc3c2)cc1 [Compound 70, trans-2-methyl-6-(4-methylphenyl)-N-[4-[N-methyl-N-(tetrahydropyran-4-yl)aminomethyl]cyclohexyl]quinoline-3-carboxamide]
180 to 183 °C | Cc1ccc(-c2csc(/C=C/C(=O)N[C@H]3CC[C@H](CN(C)C4CCOCC4)CC3)c2)cc1 [Compound 72, (trans, E)-3-[4-(4-methylphenyl)thiophen-2-yl]-N-[4-[N-methyl-N-(tetrahydropyran-4-yl)aminomethyl]cyclohexyl]acrylamide]
233 to 236 °C | Cc1ccc(-c2cncc(/C=C/C(=O)N[C@H]3CC[C@H](CN(C)C4CCOCC4)CC3)c2)cc1 [Compound 73, (trans, E)-3-[5-(4-methylphenyl)pyridin-3-yl]-N-[4-[N-methyl-N-(tetrahydropyran-4-yl)aminomethyl]cyclohexyl]acrylamide]
165 to 167 °C | Cc1ccc(-c2coc(/C=C/C(=O)N[C@H]3CC[C@H](CN(C)C4CCOCC4)CC3)c2)cc1 [Compound 74, (trans, E)-3-[4-(4-methylphenyl)furan-2-yl]-N-[4-[N-methyl-N-(tetrahydropyran-4-yl)aminomethyl]cyclohexyl]acrylamide]
123 to 127 °C | Cc1ccc(-c2ccc3c(c2)C=C(C(=O)N2CCC(N)CC2)CCO3)cc1 [Compound 76, 4-amino-1-(7-(4-methylphenyl)-2,3-dihydro-1-benzooxepine-4-carbonyl)piperidine]
101 to 103 °C | Cc1ccc(-c2ccc3c(c2)C=C(CN2CCC(NC4CCOCC4)CC2)CCO3)cc1 [Compound 80, 1-(7-(4-methylphenyl)-2,3-dihydro-1-benzooxepin-4-yl)methyl-4-((tetrahydropyran-4-yl)amino)piperidine]
185 to 187 °C | O=C(Nc1ccc(CN2CCCCC2)cc1)C1CCc2ccc(-c3ccccc3)cc2C1 (centres unmarked) [Compound 82, N-[4-(piperidinomethyl)phenyl]-7-phenyl-1,2,3,4-tetrahydronaphthalene-2-carboxamide]
205 to 208 °C | C[N+]1(Cc2ccc(NC(=O)C3CCc4ccc(-c5ccccc5)cc4C3)cc2)CCCCC1.[I-] (centres unmarked) [Compound 83, 1-[4-(7-phenyl-1,2,3,4-tetrahydronaphthalene-2-carboxamido)benzyl]-1-methylpiperidinium iodide]
153 to 155 °C | Cc1ccc(COc2cccc(C(=O)Nc3ccc(CN4CCCCC4)cc3)c2)cc1 [Compound 85, 3-(4-methylbenzyloxy)-4′-(piperidinomethyl)benzanilide]
171 to 173 °C | O=C(Nc1ccc(CN2CCCCC2)cc1)c1cccc(OCc2cccc3ccccc23)c1 [Compound 86, 3-(1-naphthylmethoxy)-4′-(piperidinomethyl)benzanilide]
192 to 194 °C | C[N+]1(Cc2ccc(NC(=O)c3cccc(OCc4ccccc4)c3)cc2)CCCCC1.[I-] [Compound 87, 1-[4-(3-benzyloxybenzoylamino)benzyl]-1-methylpiperidinium iodide]
210 to 212 °C | Cc1ccc(COc2cccc(C(=O)Nc3ccc(C[N+]4(C)CCCCC4)cc3)c2)cc1.[I-] [Compound 88, 1-methyl-1-[4-[3-(4-methylbenzyloxy)benzoylamino]benzyl]piperidinium iodide]
211 to 213 °C | C[N+]1(Cc2ccc(NC(=O)c3cccc(OCc4cccc5ccccc45)c3)cc2)CCCCC1.[I-] [Compound 89, 1-methyl-1-[4-[3-(1-naphthylmethoxy)benzoylamino]benzyl]piperidinium iodide]
